# Measured values from patent US20070288217A1, “Method for Standardization of Chemical and Therapeutic Values of Foods and Medicines Using Animated Chromatographic Fingerprinting” (priority 2004, published 2007).
# “Also recorded” adds a separate entry of the source.
# Assay: Chromatographic fingerprinting (HPLC-PDA contour and 3-D chromatograms) with interpretation of chemical and therapeutic properties by polarity and conjugation zones
# Conditions: for Change of the molecules with time in the media (fingerprints at different time intervals): different time intervals under chemical conditions
smiles,measurement,setting,value
CC(C)=CCC/C(C)=C/C=C/C(C)=C/C=C/C(C)=C/C=C/C=C(C)/C=C/C=C(C)/C=C/C=C(\C)CCC=C(C)C [Lycopine],Therapeutic property / site of action interpreted from the fingerprint,,shrothoshodhaka property; also recorded: stress reliever
same,Change of the molecules with time in the media (fingerprints at different time intervals),,under go changes; also recorded: slowly diminished with time
Cc1ccc(-c2cc(C(F)(F)F)nn2-c2ccc(S(N)(=O)=O)cc2)cc1 [Celebocoxib],Action compared to the other medicines of the same group,,different in action
CC12CC3CC(C)(C1)CC(N)(C3)C2 [Mamentane],"Effect when consumed excessively, interpreted from the fingerprint",excessive use,effect on Maha srothas
COc1ccc2[nH]c([S+]([O-])Cc3ncc(C)c(OC)c3C)nc2c1 (stereo not shown) [Onmeprazole],Therapeutic property interpreted from the fingerprint,simulated acidic condition,Ropaneeya property
same,Therapeutic property interpreted from the fingerprint,the other prakrithi,has not acted so
O=C(/C=C/c1ccc(O)c(O)c1)O[C@@H]1C[C@](O)(C(=O)O)C[C@@H](O)[C@H]1O [Chlorogenic acid],Change of the molecules with time in the media (fingerprints at different time intervals),,under go changes
